Test results published in PubChem BioAssay AID1963847 (Molecular Pharmacology Branch, DTP, NCI, 2024).

Test system: 415267-285-R-J2-PDC complex spheroid viability
Experiment: Anticancer human tumor 415267-285-R-J2-PDC patient-derived breast carcinoma cell line growth inhibition [POLQ]
Conditions: for IC50: curve of first compound; for viability, T/C: stronger effect = lower value
Experimental: Multicellular complex tumor spheroid response to Polymerase (POL) inhibitors (novobiocin, ART-558, RP6685) in combination with a variety of drugs and investigational agents in selected tumor cell lines
The POL inhibitors (novobiocin, ART-558, and RP6685) were evaluated both individually and in combination with standard of care and investigational anticancer small molecules within a complex spheroid model of solid tumors. . Complex spheroids include a stromal component modeled by human endothelial cells (HUVEC) and fibroblasts modeled by human mesenchymal stem cells (MSCs). The concentration ranges selected for each drug and investigational agent were based upon clinically achievable concentrations if the clinical Cmax of the agent was known.
Compounds. The drugs and investigational agents: novobiocin (NSC847541), ART-558 (NSC835418), RP-6685 (NSC848927), peposertib (NSC802822), ceralasertib (NSC780249), elimusertib (NSC800525), camonsertib (NSC841442), AZD-1390 (NSC803789), olaparib (NSC753686), talazoparib (NSC767125), rucaparib (NSC756644), sotorasib (NSC818433), MRTX-1133 (NSC836407), SN-38 (NSC673596), topotecan (NSC609699), epotoside (NSC141540), doxorubicin (NSC123127), gemcitabine (NSC613327), 5-fluorouracil (NSC19893), paclitaxel (NSC125973), vemurafenib (NSC761431), MSA-2 (NSC828583), SN-011 (NSC837082), adavosertib (NSC754352), prexasertib (NSC758257), carboplatin (NSC241240) and oxaliplatin (NSC266046), were obtained from the National Cancer Institute (NCI) Developmental Therapeutics Program Chemical Repository (21). The FDA-approved anticancer drug set is available from the Developmental Therapeutics Program at https://dtp.cancer.gov/organization/dscb/obtaining/. […] The stock solutions were prepared in dimethyl sulfoxide (DMSO, Sigma-Aldrich, St. Louis, MO, cat. D2650), except for the platinum compounds which were prepared in saline (Quality Biological, Gaithersburg, MD, cat. 114-055-101), at 800-fold the tested concentration and stored at -70 degrees C prior to their use. All drugs and investigational agents were tested over a range starting from a high concentration at or near the clinical Cmax and decreasing in half-log increments. If the clinical Cmax for an agent had not been determined, the highest concentration tested was 10 microM, except for SN-38, which was tested at a high concentration of 1 microM.
Cell Culture. All cells were maintained in an incubator at 37 degrees C and 5% CO2 with 95% humidity. The PDC lines were cultured according to standard operating procedures established by the NCI PDMR (https://pdmr.cancer.gov). Table 3 of the manuscript, lists the cell lines along with the number of the three cell types plated to form the mct-spheroids and media for tumor cell growth. After thawing, all PDC lines, except 997537-175-T-J1-PDC and 415267-285-R-J2-PDC, were cultured in Matrigel-coated flasks prepared with a working solution of 1X Ham's F-12 nutrient mix, without supplementation (Thermo Fisher Scientific, cat. 11765054), 100 U/mL penicillin-streptomycin (Thermo Fisher Scientific, cat. 15140122), and 2.5% Matrigel (Corning Inc., Corning, NY, cat. 354248) for the first three passages. The two PDC lines 997537-175-T-J1-PDC and 415267-285-R-J2-PDC were cultured on uncoated flasks. The 857933-349-R-J2-PDC line was cultured in 6C/Colon 1B media containing advanced DMEM/F-12 (Thermo Fisher Scientific, cat. 12634028), 10 mM HEPES (Thermo Fisher Scientific, cat. 15630080), 1X GlutaMAX supplement (Thermo Fisher Scientific, cat. 35050061), 0.1 mg/mL primocin (InvivoGen, San Diego, CA, cat. ant-pm-2), 10% defined fetal bovine serum, heat inactivated (HyClone Laboratories Inc., Logan, UT, cat. SH30070.03HI), 50% L-WRN conditioned media (ATCC, cat. CRL-3276), 1.25 mM N-Acetyl-L-cysteine (Sigma-Aldrich, cat. A9165), 10 mM nicotinamide (Sigma-Aldrich, cat. N0636), 1X B-27 supplement (Thermo Fisher Scientific, cat. 17504044), 1X N-2 supplement (Thermo Fisher Scientific, cat. […]

[1] = second compound 0.0316 µM, first compound 0.0316 µM
[2] = second compound 0.0316 µM, first compound 0.1 µM
[3] = second compound 0.0316 µM, first compound 0.316 µM
[4] = second compound 0.0316 µM, first compound 1 µM
[5] = second compound 0.0316 µM, first compound 3.16 µM
[6] = second compound 0.0316 µM, first compound 10 µM
[7] = second compound 0.1 µM, first compound 0.0316 µM
[8] = second compound 0.1 µM, first compound 0.1 µM
[9] = second compound 0.1 µM, first compound 0.316 µM
[10] = second compound 0.1 µM, first compound 1 µM
[11] = second compound 0.1 µM, first compound 3.16 µM
[12] = second compound 0.1 µM, first compound 10 µM
[13] = second compound 0.316 µM, first compound 0.0316 µM
[14] = second compound 0.316 µM, first compound 0.1 µM
[15] = second compound 0.316 µM, first compound 0.316 µM
[16] = second compound 0.316 µM, first compound 1 µM
[17] = second compound 0.316 µM, first compound 3.16 µM
[18] = second compound 0.316 µM, first compound 10 µM
[19] = second compound 1 µM, first compound 0.0316 µM
[20] = second compound 1 µM, first compound 0.1 µM
[21] = second compound 1 µM, first compound 0.316 µM
[22] = second compound 1 µM, first compound 1 µM
[23] = second compound 1 µM, first compound 3.16 µM
[24] = second compound 1 µM, first compound 10 µM
[25] = second compound 3.16 µM, first compound 0.0316 µM
[26] = second compound 3.16 µM, first compound 0.1 µM
[27] = second compound 3.16 µM, first compound 0.316 µM
[28] = second compound 3.16 µM, first compound 1 µM
[29] = second compound 3.16 µM, first compound 3.16 µM
[30] = second compound 3.16 µM, first compound 10 µM
[31] = second compound 10 µM, first compound 0.0316 µM
[32] = second compound 10 µM, first compound 0.1 µM
[33] = second compound 10 µM, first compound 0.316 µM
[34] = second compound 10 µM, first compound 1 µM
[35] = second compound 10 µM, first compound 3.16 µM
[36] = second compound 10 µM, first compound 10 µM
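Note: spheroids exposed to compounds for one week before readout.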
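Throughout, for viability, T/C: luminescence used as stand-in measure of viable cells; 100% = DMSO vehicle control viability.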

For `COc1cccc2c1C(=O)c1c(O)c3c(c(O)c1C2=O)CC(O)(C(=O)CO)CC3OC1CC(N)C(O)C(C)O1` (stereo unspecified) + COC1C(OC(N)=O)C(O)C(Oc2ccc3c(O)c(NC(=O)c4ccc(O)c(CC=C(C)C)c4)c(=O)oc3c2C)OC1(C)C, the IC50 (second compound 0.0316 µM) was 44.6 nM, the IC50 (second compound 0.1 µM) was 37.5 nM and the IC50 (second compound 0.316 µM) was 35.2 nM. The IC50 (second compound 1 µM) was less than 31.6 nM, the IC50 (second compound 3.16 µM) was 39 nM and the IC50 (second compound 10 µM) was 44 nM. It also gave a viability, T/C [1] of 66.1%, a viability, T/C [2] of 12.3% and a viability, T/C [3] of 5.33%. The viability, T/C [4] was 1.27%, the viability, T/C [5] was 0.99% and the viability, T/C [6] was 3%. For the same molecule, the viability, T/C [7] was 55.7%, the viability, T/C [8] was 17.9% and the viability, T/C [9] was 5.82%. For the same molecule, the viability, T/C [10] was 0.96%, the viability, T/C [11] was 1.01% and the viability, T/C [12] was 2.7%. The viability, T/C [13] was 54.2%, the viability, T/C [14] was 12% and the viability, T/C [15] was 4.95%. For the same molecule, the viability, T/C [16] was 0.99%, the viability, T/C [17] was 0.89% and the viability, T/C [18] was 2.53%. The viability, T/C [19] was 48.8%, the viability, T/C [20] was 11.6% and the viability, T/C [21] was 5.43%. The viability, T/C [22] was 1.06%, the viability, T/C [23] was 1.03% and the viability, T/C [24] was 2.68%. It also gave a viability, T/C [25] of 58.4%, a viability, T/C [26] of 12.5% and a viability, T/C [27] of 4.68%. It also gave a viability, T/C [28] of 1.06%, a viability, T/C [29] of 1.25% and a viability, T/C [30] of 2.55%. For the same molecule, the viability, T/C [31] was 63.9%, the viability, T/C [32] was 16% and the viability, T/C [33] was 5.78%. It also gave a viability, T/C [34] of 1.44%, a viability, T/C [35] of 1.38% and a viability, T/C [36] of 3.32%.

Work on `O=C(c1cc(Cc2n[nH]c(=O)c3ccccc23)ccc1F)N1CCN(C(=O)C2CC2)CC1` + COC1C(OC(N)=O)C(O)C(Oc2ccc3c(O)c(NC(=O)c4ccc(O)c(CC=C(C)C)c4)c(=O)oc3c2C)OC1(C)C yielded an IC50 (second compound 0.0316 µM) greater than 10000 nM, an IC50 (second compound 0.1 µM) greater than 10000 nM and an IC50 (second compound 0.316 µM) greater than 10000 nM. For the same molecule, the IC50 (second compound 1 µM) was greater than 10000 nM, the IC50 (second compound 3.16 µM) was greater than 10000 nM and the IC50 (second compound 10 µM) was greater than 10000 nM. The viability, T/C [1] was 88%, the viability, T/C [2] was 92.7% and the viability, T/C [3] was 89.4%. The viability, T/C [4] was 94.3%, the viability, T/C [5] was 96.5% and the viability, T/C [6] was 81.8%. For the same molecule, the viability, T/C [7] was 95.5%, the viability, T/C [8] was 94% and the viability, T/C [9] was 87%. For the same molecule, the viability, T/C [10] was 92%, the viability, T/C [11] was 94.6% and the viability, T/C [12] was 79.6%. The viability, T/C [13] was 93.5%, the viability, T/C [14] was 102% and the viability, T/C [15] was 98.2%. For the same molecule, the viability, T/C [16] was 96.6%, the viability, T/C [17] was 90.4% and the viability, T/C [18] was 95.1%. The viability, T/C [19] was 98.5%, the viability, T/C [20] was 101% and the viability, T/C [21] was 96.8%. It also gave a viability, T/C [22] of 90.9%, a viability, T/C [23] of 96% and a viability, T/C [24] of 77.9%. For the same molecule, the viability, T/C [25] was 97.2%, the viability, T/C [26] was 91.9% and the viability, T/C [27] was 90.8%. It also gave a viability, T/C [28] of 94.8%, a viability, T/C [29] of 98.3% and a viability, T/C [30] of 81.4%. The viability, T/C [31] was 97.6%, the viability, T/C [32] was 105% and the viability, T/C [33] was 92%. It also gave a viability, T/C [34] of 93.2%, a viability, T/C [35] of 89.2% and a viability, T/C [36] of 79.7%.

Molecule `COc1cccc2c1C(=O)c1c(O)c3c(c(O)c1C2=O)CC(O)(C(=O)CO)CC3OC1CC(N)C(O)C(C)O1` (stereo unspecified) + Cc1cccc(N(C)C(=O)C2C(O)CCN2c2nc(C)cc(C(F)(F)F)c2C#N)c1 has an IC50 (second compound 0.0316 µM) of less than 31.6 nM, an IC50 (second compound 0.1 µM) of less than 31.6 nM and an IC50 (second compound 0.316 µM) of less than 31.6 nM. For the same molecule, the IC50 (second compound 1 µM) was less than 31.6 nM, the IC50 (second compound 3.16 µM) was less than 31.6 nM and the IC50 (second compound 10 µM) was less than 31.6 nM. It also gave a viability, T/C [1] of 37.8%, a viability, T/C [2] of 18.6% and a viability, T/C [3] of 4.26%. For the same molecule, the viability, T/C [4] was 0.86%, the viability, T/C [5] was 1% and the viability, T/C [6] was 2.87%. It also gave a viability, T/C [7] of 38.3%, a viability, T/C [8] of 11.9% and a viability, T/C [9] of 5.5%. For the same molecule, the viability, T/C [10] was 0.82%, the viability, T/C [11] was 0.95% and the viability, T/C [12] was 3.55%. The viability, T/C [13] was 36.5%, the viability, T/C [14] was 13.7% and the viability, T/C [15] was 4.69%. The viability, T/C [16] was 0.81%, the viability, T/C [17] was 1.46% and the viability, T/C [18] was 2.87%. It also gave a viability, T/C [19] of 42.5%, a viability, T/C [20] of 8.66% and a viability, T/C [21] of 4.35%. It also gave a viability, T/C [22] of 0.62%, a viability, T/C [23] of 1.26% and a viability, T/C [24] of 2.94%. It also gave a viability, T/C [25] of 40.4%, a viability, T/C [26] of 13.7% and a viability, T/C [27] of 5.27%. For the same molecule, the viability, T/C [28] was 0.66%, the viability, T/C [29] was 1.47% and the viability, T/C [30] was 2.63%. For the same molecule, the viability, T/C [31] was 24.7%, the viability, T/C [32] was 9.06% and the viability, T/C [33] was 7.17%. It also gave a viability, T/C [34] of 0.84%, a viability, T/C [35] of 3.16% and a viability, T/C [36] of 3.87%.
